Assay results reported in publication PMC4481117 (Molecular Pain, 2015).

Legend:
GST = test: Solid-phase binding of GST (control); settings: immobilized Dyn A; % of the αMI-domains; not shown
Procedure: Microtiter plates were coated with different concentrations of the fibrinogen D100 fragment or Dyn A overnight at 4 °C and post-coated with 3 % BSA for 1 h. The GST-αMI-domains in 20 mM Tris–HCl, pH 7.4, 100 mM NaCl, 1 mM MgCl2, 1 mM CaCl2, 0.05 % Tween 20, and 5 % glycerol were added to the wells and incubated for 1.5 h at 22 °C. After washing, the plates were incubated with an anti-GST mAb at a 1:5000 dilution for 1 h at 22 °C. After washing, goat anti-mouse IgG conjugated to alkaline phosphatase was added for 1 h and the binding of the αMI-domains was detected by reaction with p-nitrophenyl phosphate measuring the absorbance at 405 nm. Background binding to BSA was subtracted.

wild-type HEK293 cells = test: Adhesion of wild-type HEK293 cells to immobilized peptide; format: cell-based, Human; settings: coated wells, calcein-labeled cells, 30 min at 37 °C
Procedure: Fig. 3 Adhesion of Mac-1-expressing cells to Dyn A and Dyn B. a, Mac-1-expressing and wild-type HEK293 cells were labeled with calcein and 5x10^4 cells were added to the wells coated with different concentrations of the Dyn A. After 30 min at 37 °C, nonadherent cells were removed and fluorescence was measured. The data shown are means of triplicate determinations, and error bars represent S.E. The figure is representative of 8 experiments. b , adhesion of HEK293 cells expressing Mac-1, LFA and the I-less form of Mac-1 to Dyn A and Dyn B immobilized at 10 μM was determined as described in A. c, calcein-labeled Mac-1-HEK293 cells were preincubated without or with 10 μg/ml of anti-αM mAb 44a or 1 μg/ml NIF for 15 minutes. For testing the role of glucosaminoglycans in cell adhesion, dynorphin A-coated wells were preincubated with 100 μl of 10 μg/ml of chondroitin sulfate A, chondroitin sulfate B and heparin. […]
Adhesion assays were performed essentially as described previously. […] Fluorescence was measured in a CytoFluorII fluorescence plate reader (Perceptive Biosystems, Framingham, MA). […] After aspirating the solution, labeled cells were added and cell adhesion was analyzed as above.

[1] = test system: Mac-1-deficient macrophages; test: Transwell migration of Mac-1-deficient peritoneal macrophages to Dyn A; format: cell-based, mouse; settings: 10 μM Dyn A, 90 min at 37 °C, TG-elicited
Procedure: (§1) Fig. 6 Migration of Mac-1-expressing cells to Dyn A in a Transwell system. a, Mac-1-expressing HEK 293 cells (100 μl at 3 × 10^6 cell/ml) were added to the upper wells of the transwell chamber and their ability to migrate to different concentrations of Dyn A placed in the lower chamber was analyzed. After 16 hours at 37 °C, migrated cells were fixed, stained, and counted. Data are presented as numbers of migrated cells per field ± S.E. for five random fields per well. The figure is representative of 5 experiments. b, Mac-1-expressing or wild-type HEK 293 cells were added to the upper wells of the transwell chamber and their ability to migrate to 10 μM Dyn A placed in the lower chamber was analyzed as in A. Some Mac-1-HEK293 cells were pretreated with 20 μg/ml of mAbs 44a (anti-αM), IB4 (anti-β2) or OKM1 (non function-blocking anti-αM) or medium alone before addition to the upper wells. ***, medium alone. […] The number of migrated cells was determined as in A. Data are presented as number of migrated cells per field ± S.E. for five random fields per well. […]
(§2) Migration assays with wild-type and Mac-1-expressing HEK293 cells and purified macrophages using Transwell inserts (5 μm pore size) were performed as previously described. […] The photographs were taken using a 20x objective and cells in […] and cells were counted. […]

wild-type macrophages = test: Transwell migration of wild-type peritoneal macrophages to Dyn A; format: cell-based, mouse; settings: 10 μM Dyn A, 90 min at 37 °C, TG-elicited
Procedure: as §1, §2

## CC[C@H](C)[C@H](NC(=O)[C@H](CCCNC(=N)N)NC(=O)[C@H](CCCNC(=N)N)NC(=O)[C@H](CC(C)C)NC(=O)[C@H](Cc1ccccc1)NC(=O)CNC(=O)CNC(=O)[C@@H](N)Cc1ccc(O)cc1)C(=O)N[C@@H](CCCNC(=N)N)C(=O)N1CCC[C@H]1C(=O)N[C@@H](CCCCN)C(=O)N[C@@H](CC(C)C)C(=O)N[C@@H](CCCCN)C(=O)N[C@@H](Cc1c[nH]c2ccccc12)C(=O)N[C@@H](CC(=O)O)C(=O)N[C@@H](CC(N)=O)C(=O)N[C@@H](CCC(N)=O)C(=O)O [Dyn A]
GST
  Binding of GST to Dyn A relative to the αMI-domains: less than 5%
wild-type HEK293 cells
  Adhesion of wild-type HEK293 cells (in words): adhered only slightly
[1]
  Migration of Mac-1-deficient macrophages (in words): significantly impaired
wild-type macrophages
  Migration of wild-type macrophages (in words): migrated to Dyn A
